Patent US10959428B2, “Hematophagous arthropod repellent composition” (WOOJUNG BIO INC., priority 2017, dated 2021)
Where “and” joins values, the source holds several entries; their conditions need not be identical. Identical values can stand only once.

Tests used:
[1] = tested on: nymphs of Haemaphysalis longicornis; assay: finger-tip method, tick repellency; format: in vivo
Description: By having the outdoor group of Haemaphysalis longicornis collected from the region around Bongdam-Myon, Hwasung-Shi, Kunggi-Do, South Korea as a subject, the repellency against ticks was determined by employing a finger-tip method. In 50 μl of ethanol, each sample was dissolved in an amount of 2 mg, and then treated on the second nodule of a third finger. […] All tests were carried out in triplicate. Repellency %=(Number of insects showing bloodsucking behavior in non-treatment group−Number of insects showing bloodsucking behavior in treatment group)/Number of insects showing bloodsucking behavior in non-treatment group)×100 […]

adult Aedes albopicus = assay: cage-in-arm test, repellency and CPT; format: in vivo, Aedes albopictus; conditions: for CPT: 4 mg, adult Aedes albopicus
Description: (§1) For determining the repellency of prepared samples against adults of Aedes aegypti and Aedes albopicus, a cage-in-arm test was carried out as a method for exposure to skin. Namely, on a back of the hand of a rubber glove, a hole with diameter of 5 cm was created, and, onto an exposed back of the testees, various samples prepared by dissolution in 100 μl of ethanol were applied, and then the skin test was carried out. The testees were healthy males between the ages of 21 and 40. The control group was treated with 100 μl of ethanol only. Female adults (5 to 8 day old) of Aedes aegypti or Aedes albopicus (250 to 300 mosquitoes) were added to a cage for growing adult mosquitoes (25×25×25 cm^3), and adapted to the indoor conditions for 12 to 24 hours before starting the test. When the upper arm of the control group is exposed for 1 minute and at least 6 mosquitoes sit on the upper arm or show a bloodsucking behavior, it was determined as sufficient biting pressure, and then the repellency test was carried out. With an interval of 30 minutes, by exposing the upper arm, which has been treated with the above composition, for 3 minutes, and, when the adult mosquito sits on the arm for 2 seconds or longer or at least two mosquitoes showing the behavior of mouth injection to skin or direct bloodsucking are found from consecutive tests, the test was stopped. The time period between the time point with initial treatment of a material and the time point at which 2 or more mosquitoes continuously sit on the treatment area or show the bloodsucking behavior was defined as complete protection time (CPT). Furthermore, for obtaining the repellency with regard to concentration, exposure was made for a constant time period regardless of the above and the repellency was calculated by using the following formula. Accordingly, the effect was compared among each test samples. All tests were carried out in triplicate. Repellency %=(Number of insects showing bloodsucking behavior in non-treatment group−Number of insects showing bloodsucking behavior in treatment group)/Number of insects showing bloodsucking behavior in non-treatment group)×100 <Tick Repellency>
For reference, comparison of the mosquito repellency was made by using clove oil as a natural positive control group and DEET as a synthetic positive control group.
To determine the repellency of plant essential oil alone against adult Aedes albopicus and nymphs of Haemaphysalis longicornis, the cage-in-arm test and finger-tip method were carried out, in the same manner as Examples 1-2 and 1-3, with each of 16 kinds of plant essential oil of Table 4.

adult Aedes aegypti = assay: cage-in-arm test, complete protection time (CPT); format: in vivo; conditions: 4 mg
Description: as §1, with “With an interval of 30 minutes, by exposing the upper arm, which has been treated with the above composition, for 3 minutes, and, when the adult mosquito sits on the arm for 2 seconds or longer or at least two mosquitoes showing the behavior of mouth injection to skin or direct bloodsucking are found from consecutive tests, the test was stopped.” left out

COc1ccc(C=O)cc1OC [3,4-Dimethoxybenzaldehyde, 3,4-dimethoxybenzaldehyde]
Repellency (mean ± SE, %) ([1]; 0.01 mg/cm^2, 15 min.): 100 ± 0% | Repellency (mean ± SE, %) ([1]; 0.01 mg/cm^2, 30 min.): 100 ± 0% | Repellency (mean ± SE, %) ([1]; 0.01 mg/cm^2, 60 min.): 98 ± 2.5% | Repellency (mean ± SE, %) ([1]; 0.01 mg/cm^2, 90 min.): 98 ± 2.5% | Repellency (mean ± SE, %) ([1]; 0.01 mg/cm^2, 120 min.): 90 ± 5.8% | Repellency (mean ± SE, %) ([1]; 0.01 mg/cm^2, 150 min.): 95 ± 2.9% | Repellency (mean ± SE, %) ([1]; 0.01 mg/cm^2, 180 min.): 95 ± 2.9% | Repellency (mean ± SE, %) ([1]; 0.01 mg/cm^2, 210 min.): 73 ± 10.3% | Repellency (mean ± SE, %) ([1]; 0.01 mg/cm^2, 240 min.): 65% and 65 ± 2.9% | Repellency (mean ± SE, %) ([1]; 0.01 mg/cm^2, 270 min.): 43 ± 4.8% | Repellency (mean ± SE, %) ([1]; 0.02 mg/cm^2, 15 min.): 100 ± 0% | Repellency (mean ± SE, %) ([1]; 0.02 mg/cm^2, 30 min.): 100 ± 0% | Repellency (mean ± SE, %) ([1]; 0.02 mg/cm^2, 60 min.): 100 ± 0% | Repellency (mean ± SE, %) ([1]; 0.02 mg/cm^2, 90 min.): 98 ± 2.5% | Repellency (mean ± SE, %) ([1]; 0.02 mg/cm^2, 120 min.): 98 ± 2.5% | Repellency (mean ± SE, %) ([1]; 0.02 mg/cm^2, 150 min.): 100 ± 0% | Repellency (mean ± SE, %) ([1]; 0.02 mg/cm^2, 180 min.): 98 ± 2.5% | Repellency (mean ± SE, %) ([1]; 0.02 mg/cm^2, 210 min.): 95 ± 5.0% | Repellency (mean ± SE, %) ([1]; 0.02 mg/cm^2, 240 min.): 85 ± 2.9% | Repellency (mean ± SE, %) ([1]; 0.02 mg/cm^2, 270 min.): 63 ± 4.8% | Repellency (mean ± SE, %) ([1]; 0.02 mg/cm^2, 300 min.): 48 ± 2.5% | repellency ([1]; 0.02 mg/cm^2 or higher, 4 hours after the treatment): ≥ 78% | Repellency (mean ± SE, %) ([1]; 0.05 mg/cm^2, 15 min.): 100 ± 0% | Repellency (mean ± SE, %) ([1]; 0.05 mg/cm^2, 30 min.): 100 ± 0% | Repellency (mean ± SE, %) ([1]; 0.05 mg/cm^2, 60 min.): 100 ± 0% | Repellency (mean ± SE, %) ([1]; 0.05 mg/cm^2, 90 min.): 98 ± 2.5% | Repellency (mean ± SE, %) ([1]; 0.05 mg/cm^2, 120 min.): 98 ± 2.5% | Repellency (mean ± SE, %) ([1]; 0.05 mg/cm^2, 150 min.): 85 ± 2.9% | Repellency (mean ± SE, %) ([1]; 0.05 mg/cm^2, 180 min.): 83 ± 6.3% | Repellency (mean ± SE, %) ([1]; 0.05 mg/cm^2, 210 min.): 85 ± 6.5% | Repellency (mean ± SE, %) ([1]; 0.05 mg/cm^2, 240 min.): 78 ± 4.8% | Repellency (mean ± SE, %) ([1]; 0.05 mg/cm^2, 270 min.): 70 ± 4.1% | Repellency (mean ± SE, %) ([1]; 0.05 mg/cm^2, 300 min.): 50 ± 4.1% | Repellency (mean ± SE, %) ([1]; 0.09 mg/cm^2, 15 min.): 100 ± 0% | Repellency (mean ± SE, %) ([1]; 0.09 mg/cm^2, 30 min.): 100 ± 0% | Repellency (mean ± SE, %) ([1]; 0.09 mg/cm^2, 60 min.): 100 ± 0% | Repellency (mean ± SE, %) ([1]; 0.09 mg/cm^2, 90 min.): 98 ± 2.5% | Repellency (mean ± SE, %) ([1]; 0.09 mg/cm^2, 120 min.): 100 ± 0% | Repellency (mean ± SE, %) ([1]; 0.09 mg/cm^2, 150 min.): 100 ± 0% | Repellency (mean ± SE, %) ([1]; 0.09 mg/cm^2, 180 min.): 100 ± 0% | Repellency (mean ± SE, %) ([1]; 0.09 mg/cm^2, 210 min.): 98 ± 2.5% | Repellency (mean ± SE, %) ([1]; 0.09 mg/cm^2, 240 min.): 83 ± 2.5% | Repellency (mean ± SE, %) ([1]; 0.09 mg/cm^2, 270 min.): 73 ± 6.3% | Repellency (mean ± SE, %) ([1]; 0.09 mg/cm^2, 300 min.): 65 ± 2.9% | Repellency (mean ± SE, %) (adult Aedes albopicus; 0.03 mg/cm^2, 10 minutes): 100 ± 0% | Repellency (mean ± SE, %) (adult Aedes albopicus; 0.03 mg/cm^2, 30 minutes): 75 ± 7.1% | Repellency (mean ± SE, %) (adult Aedes albopicus; 0.03 mg/cm^2, 60 minutes): 54 ± 4.3% | Repellency (mean ± SE, %) (adult Aedes albopicus; 0.10 mg/cm^2, 10 minutes): 100 ± 0% | Repellency (mean ± SE, %) (adult Aedes albopicus; 0.10 mg/cm^2, 30 minutes): 93 ± 4.3% | Repellency (mean ± SE, %) (adult Aedes albopicus; 0.10 mg/cm^2, 60 minutes): 90 ± 4.1% | Repellency (mean ± SE, %) (adult Aedes albopicus; 0.10 mg/cm^2, 90 minutes): 83 ± 8.8% | Repellency (mean ± SE, %) (adult Aedes albopicus; 0.10 mg/cm^2, 120 minutes): 58 ± 5.5% | Repellency (mean ± SE, %) (adult Aedes albopicus; 0.20 mg/cm^2, 10 minutes): 100 ± 0% | Repellency (mean ± SE, %) (adult Aedes albopicus; 0.20 mg/cm^2, 30 minutes): 100 ± 0% | Repellency (mean ± SE, %) (adult Aedes albopicus; 0.20 mg/cm^2, 60 minutes): 99 ± 2.3% | Repellency (mean ± SE, %) (adult Aedes albopicus; 0.20 mg/cm^2, 90 minutes): 94 ± 4.6% | Repellency (mean ± SE, %) (adult Aedes albopicus; 0.20 mg/cm^2, 120 minutes): 91 ± 1.7% | Repellency (mean ± SE, %) (adult Aedes albopicus; 0.20 mg/cm^2, 150 minutes): 83 ± 2.6% | Repellency (mean ± SE, %) (adult Aedes albopicus; 0.20 mg/cm^2, 180 minutes): 65 ± 6.0% | Repellency (mean ± SE, %) (adult Aedes albopicus; 0.25 mg/cm^2, 10 minutes): 100 ± 0% | Repellency (mean ± SE, %) (adult Aedes albopicus; 0.25 mg/cm^2, 30 minutes): 100 ± 0% | Repellency (mean ± SE, %) (adult Aedes albopicus; 0.25 mg/cm^2, 60 minutes): 100 ± 0% | Repellency (mean ± SE, %) (adult Aedes albopicus; 0.25 mg/cm^2, 90 minutes): 100 ± 0% | Repellency (mean ± SE, %) (adult Aedes albopicus; 0.25 mg/cm^2, 120 minutes): 100 ± 0% | Repellency (mean ± SE, %) (adult Aedes albopicus; 0.25 mg/cm^2, 150 minutes): 95 ± 3.2% | Repellency (mean ± SE, %) (adult Aedes albopicus; 0.25 mg/cm^2, 180 minutes): 58 ± 4.4% | CPT (adult Aedes albopicus): 50 min | CPT (adult Aedes aegypti; adult Aedes aegypti): 70 min | CPT (adult Aedes aegypti; adult Aedes aegypti, listed as 3,4-demethoxybenzaldehyde): 70 min

COc1cc(C=O)ccc1OCc1ccccc1 [4-Benzyloxy-3-methoxybenzaldehyde, 4-benzyloxy-3-methoxybenzaldehyde]
CPT (adult Aedes aegypti; adult Aedes aegypti): 22 min

COc1cc(CN)ccc1O.Cl [4-hydroxy-3-methoxybenzylamine hydrochloride]
CPT (adult Aedes aegypti; adult Aedes aegypti): 10 min

CCN(CC)C(=O)c1cccc(C)c1 [DEET, N,N-diethyl-m-toluamide]
Repellency (mean ± SE, %) (adult Aedes albopicus; 0.03 mg/cm^2, 10 minutes): 77 ± 5.8% | Repellency (mean ± SE, %) (adult Aedes albopicus; 0.03 mg/cm^2, 30 minutes): 67 ± 3.3% | Repellency (mean ± SE, %) (adult Aedes albopicus; 0.03 mg/cm^2, 60 minutes): 69 ± 6.9% | Repellency (mean ± SE, %) (adult Aedes albopicus; 0.03 mg/cm^2, 90 minutes): 19 ± 5.2% | Repellency (mean ± SE, %) (adult Aedes albopicus; 0.10 mg/cm^2, 10 minutes): 100 ± 0% | Repellency (mean ± SE, %) (adult Aedes albopicus; 0.10 mg/cm^2, 30 minutes): 96 ± 2.6% | Repellency (mean ± SE, %) (adult Aedes albopicus; 0.10 mg/cm^2, 60 minutes): 86 ± 4.2% | Repellency (mean ± SE, %) (adult Aedes albopicus; 0.10 mg/cm^2, 90 minutes): 83 ± 4.3% | Repellency (mean ± SE, %) (adult Aedes albopicus; 0.10 mg/cm^2, 120 minutes): 82 ± 9.5% | Repellency (mean ± SE, %) (adult Aedes albopicus; 0.10 mg/cm^2, 150 minutes): 57 ± 5.2% | Repellency (mean ± SE, %) (adult Aedes albopicus; 0.10 mg/cm^2, 180 minutes): 27 ± 3.8% | Repellency (mean ± SE, %) (adult Aedes albopicus; 0.20 mg/cm^2, 10 minutes): 100 ± 0% | Repellency (mean ± SE, %) (adult Aedes albopicus; 0.20 mg/cm^2, 30 minutes): 100 ± 0% | Repellency (mean ± SE, %) (adult Aedes albopicus; 0.20 mg/cm^2, 60 minutes): 100 ± 0% | Repellency (mean ± SE, %) (adult Aedes albopicus; 0.20 mg/cm^2, 90 minutes): 100 ± 0% | Repellency (mean ± SE, %) (adult Aedes albopicus; 0.20 mg/cm^2, 120 minutes): 95 ± 3.3% | Repellency (mean ± SE, %) (adult Aedes albopicus; 0.20 mg/cm^2, 150 minutes): 96 ± 1.2% | Repellency (mean ± SE, %) (adult Aedes albopicus; 0.20 mg/cm^2, 180 minutes): 85 ± 3.0% | Repellency (mean ± SE, %) (adult Aedes albopicus; 0.25 mg/cm^2, 10 minutes): 100 ± 0% | Repellency (mean ± SE, %) (adult Aedes albopicus; 0.25 mg/cm^2, 30 minutes): 100 ± 0% | Repellency (mean ± SE, %) (adult Aedes albopicus; 0.25 mg/cm^2, 60 minutes): 100 ± 0% | Repellency (mean ± SE, %) (adult Aedes albopicus; 0.25 mg/cm^2, 90 minutes): 100 ± 0% | Repellency (mean ± SE, %) (adult Aedes albopicus; 0.25 mg/cm^2, 120 minutes): 100 ± 0% | Repellency (mean ± SE, %) (adult Aedes albopicus; 0.25 mg/cm^2, 150 minutes): 100 ± 0% | Repellency (mean ± SE, %) (adult Aedes albopicus; 0.25 mg/cm^2, 180 minutes): 84 ± 4.3% | CPT (adult Aedes albopicus): 90 min | CPT (adult Aedes aegypti; adult Aedes aegypti): 90 min | CPT (adult Aedes aegypti; adult Aedes aegypti (Table 6)): 90 min

C=CCc1ccc(O)c(OC)c1 [Eugenol (clove), Eugenol]
CPT (adult Aedes albopicus): 10 min
